Where two headings read alike, the source gives them in different places.
Key:
MV-4-11 = assay: Alamar Blue cell proliferation assay, MV-4-11; format: cell-based; settings: Homo sapiens, MV4-11, MV-4-11, Table 5, read-out: AB: MV-4-11 IC50
Procedure, shortened: (§1)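 4,000-5,000 cells/well; compound added from 2× dilutions; 4 d, 37° C, 5% CO2, humidified. Alamar Blue dye 4 h; fluorescence ex 544/em 590 nm. Controls: no-compound cells, medium-only blanks.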

SUM-149PT = assay: Alamar Blue cell proliferation assay, SUM-149PT; format: cell-based; settings: Homo sapiens, SUM149PT
Method: (§2) A representative cell-proliferation assay protocol using Alamar Blue dye (stored at 4° C., use 20 ul per well) is described hereafter.
(§3) a. Split and trypsinize cells.
(§4) b. Count cells using hemocytometer.
(§5) c. Plate 4,000-5,000 cells per well in 100 μl of medium and seed into a 96-well plate according to the following plate layout. Add cell culture medium only to wells B10 to B12. Wells B1 to B9 have cells but no compound added.
(§6) d. Add 100 μl of 2× drug dilution to each well in a concentration shown in the plate layout above. At the same time, add 100 μl of media into the control wells (wells B10 to B12). Total volume is 200 μl/well.
(§7) e. Incubate four (4) days at 37° C., 5% CO2 in a humidified incubator.
(§8) f. Add 20 μl Alamar Blue reagent to each well.
(§9) g. Incubate for four (4) hours at 37° C., 5% CO2 in a humidified incubator.
(§10) h. Record fluorescence at an excitation wavelength of 544 nm and emission wavelength of 590 nm using a microplate reader.
(§11) In the assays, cells are cultured with a test compound for approximately four days, the dye is then added to the cells and fluorescence of […] dye is detected after approximately four hours. Different types of cells can be utilized in the assays (e.g., HCT-116 human colorectal carcinoma cells, PC-3 human prostatic cancer cells and MiaPaca human pancreatic carcinoma cells).

recombinant human CK2 = biological target: T1, recombinant human CK2 (Homo sapiens, UniProt P68400); assay: CK2 assay (cell-free, 33P-ATP filter plate); format: biochemical
T1 construct: purchased Upstate
Procedure, shortened: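 Recombinant human CK2 (25 ng) with RRRDDDSDDD peptide in MOPS pH 7.2 buffer; started with ATP/MgCl2 plus [γ-33P]ATP (75 micromolar ATP in stock solution) for 10 minutes at 30 degrees C. Acid-quenched, captured on phosphocellulose filters, and incorporated radioactivity counted by scintillation.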

MDAMB453 = assay: Alamar Blue cell proliferation assay, MDAMB453; format: cell-based; settings: Homo sapiens
Method: as §2, §3, §4, §5, §6, §7, §8, §9, §10, §11

recombinant human PIM2 = recombinant human PIM2 (Homo sapiens, UniProt Q9P1W9); assay: PIM-2 assay (33P-ATP filter plate); format: biochemical; settings: for IC50: Table 5; for inhibition at 2.5 µM: Table 6, read-out: PIM2: % inh @ 2.5 uM
Method: PIM-2 Assay Method: Test compounds dissolved and diluted in DMSO (2 μl) were added to a reaction mixture comprising 10 μl of 5× Reaction Buffer (40 mM MOPS pH 7.0, 5 mM EDTA), 10 μl of recombinant human PIM2 solution (4 ng PIM-2 dissolved in dilution buffer (20 mM MOPS pH 7.0; EDTA 1 mM; 5% Glycerol; 0.01% Brij 35; […]; […] 2-mercaptoethanol; 1 mg/ml BSA)) and 8 ul of water. Reactions were initiated by the addition of 10 ul of ATP Solution (49% (15 mM MgCl2; 75 uM ATP) 1% ([γ-^33P]ATP: Stock 1 mCi/1000; 3000Ci/mmol (Perkin Elmer)) and 10 ul of substrate peptide solution (RSRSSYPAGT, dissolved in water at a concentration of 1 mM), Reactions were maintained for 10 min at 30° C. The reactions were quenched with 100 ul of 0.75% Phosphoric acid, then transferred to and filtered through a Phosphocellulose filter plate (Millipore, MSPH-N6B-50). After washing each well 4 times with 0.75% Phosphoric acid, scintillation fluid (20 uL) was added to each well and the residual radioactivity was measured using a Wallac luminescence counter.

K-562 = assay: Alamar Blue cell proliferation assay, K-562; format: cell-based; settings: Homo sapiens, K562, K-562, Table 5, read-out: AB: K-562 IC50
Procedure, shortened: as §1

recombinant PIM-1 = recombinant PIM-1 (Homo sapiens, UniProt P11309); assay: PIM-1 assay (33P-ATP filter plate); format: biochemical; settings: Table 5; read-out: PIM1: IC50
Procedure, shortened: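 Recombinant PIM-1 (1 ng) with 100 uM KKRNRTLTK, 15 uM ATP plus [γ-33P]ATP, 10 mM Mg acetate in MOPS pH 7.0, 4% DMSO. Reaction 40 min at 23° C, quenched with phosphoric acid; labeled peptide captured on phosphocellulose filter and counted by scintillation.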

BxPC3 = assay: Alamar Blue cell proliferation assay, BxPC3; format: cell-based; settings: Homo sapiens
Method: as §2, §3, §4, §5, §6, §7, §8, §9, §10, §11

[1] = Table 5, read-out: AB: SUM-149PT IC50
[2] = MDA-MB-453, MDAMB453, Table 5, read-out: AB: MDAMB453 IC50
[3] = BXPC-3, BxPC3, Table 5, read-out: AB: BxPC3 IC50
[4] = Table 6, read-out: AB: SUM-149PT IC50
[5] = MDA-MB-453, MDAMB453, Table 6, read-out: AB: MDAMB453 IC50
[6] = BXPC-3, BxPC3, Table 6, read-out: AB: BxPC3 IC50

Chain of recombinant PIM-1 (P11309 whole entry): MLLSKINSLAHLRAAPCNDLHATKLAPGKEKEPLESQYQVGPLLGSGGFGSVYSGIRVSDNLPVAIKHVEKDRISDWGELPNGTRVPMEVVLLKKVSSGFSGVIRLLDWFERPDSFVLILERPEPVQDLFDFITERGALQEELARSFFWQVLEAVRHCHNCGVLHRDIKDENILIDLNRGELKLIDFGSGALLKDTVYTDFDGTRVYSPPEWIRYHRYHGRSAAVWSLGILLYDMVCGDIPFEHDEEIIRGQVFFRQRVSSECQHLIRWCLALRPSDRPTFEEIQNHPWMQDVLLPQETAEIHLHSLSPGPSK
T1 sequence (P68400 whole entry): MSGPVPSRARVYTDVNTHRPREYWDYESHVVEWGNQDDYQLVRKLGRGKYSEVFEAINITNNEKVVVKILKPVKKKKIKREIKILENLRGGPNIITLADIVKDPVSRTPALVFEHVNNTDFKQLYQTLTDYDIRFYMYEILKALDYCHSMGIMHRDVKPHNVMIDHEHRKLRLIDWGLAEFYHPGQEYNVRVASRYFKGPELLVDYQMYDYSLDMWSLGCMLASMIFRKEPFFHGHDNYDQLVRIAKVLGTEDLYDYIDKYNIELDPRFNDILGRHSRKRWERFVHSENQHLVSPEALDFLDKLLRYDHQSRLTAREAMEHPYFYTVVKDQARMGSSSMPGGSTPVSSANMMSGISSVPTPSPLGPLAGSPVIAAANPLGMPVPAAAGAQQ
T1 sequence (P67870 whole entry partner): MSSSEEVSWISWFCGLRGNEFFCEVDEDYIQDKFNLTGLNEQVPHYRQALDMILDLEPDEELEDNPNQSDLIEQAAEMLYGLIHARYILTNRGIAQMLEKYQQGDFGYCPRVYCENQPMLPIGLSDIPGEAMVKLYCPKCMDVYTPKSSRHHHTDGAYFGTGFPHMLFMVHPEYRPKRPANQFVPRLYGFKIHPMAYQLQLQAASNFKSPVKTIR
Chain of recombinant human PIM2 (Q9P1W9 whole entry): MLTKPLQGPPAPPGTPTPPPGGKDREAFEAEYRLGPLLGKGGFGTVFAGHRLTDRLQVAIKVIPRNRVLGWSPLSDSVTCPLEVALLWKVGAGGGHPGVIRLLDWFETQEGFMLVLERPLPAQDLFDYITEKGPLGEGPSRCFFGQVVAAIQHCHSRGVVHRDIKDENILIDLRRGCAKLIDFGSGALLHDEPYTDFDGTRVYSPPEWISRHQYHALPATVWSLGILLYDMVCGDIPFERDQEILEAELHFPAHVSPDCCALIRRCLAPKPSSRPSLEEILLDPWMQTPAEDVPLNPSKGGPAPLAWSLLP

Structure (SMILES)	IC50 (MV-4-11) [µM]	IC50 (SUM-149PT; [1]) [µM]	IC50 (recombinant human CK2; Table 5) [µM]	IC50 (MDAMB453; [2]) [µM]	IC50 (recombinant human PIM2) [µM]	IC50 (K-562) [µM]	IC50 (recombinant PIM-1) [µM]	IC50 (BxPC3; [3]) [µM]	IC50 (SUM-149PT; [4]) [µM]	IC50 (recombinant human CK2; Table 6) [µM]	IC50 (MDAMB453; [5]) [µM]	inhibition at 2.5 µM (recombinant human PIM2) [%]	IC50 (BxPC3; [6]) [µM]
CC(C)NC(=O)N1CCCN(c2cncc(-c3cc(/C=C4/SC(=O)NC4=O)ccc3F)n2)CC1	7.7	1.56	< 0.05	6.28	< 0.05	–	–	–	–	–	–	–	–
CN1CCCN(c2cncc(-c3cc(/C=C4\SC(=O)NC4=O)ccc3Cl)n2)CC1	3.01	> 30	0.0921	18.4	< 0.05	> 30	< 0.05	> 30	–	–	–	–	–
Cc1ccc(-c2cncc(N3CCCN(C)CC3)n2)cc1/C=C1\SC(=O)NC1=O	3.75	8.7	0.05	15.5	0.05	6.54	< 0.05	25.8	–	–	–	–	–
O=C1NC(=O)/C(=C\c2ccc(F)c(-c3cncc(N4CCCN(C(=O)OCc5ccccc5)CC4)n3)c2)S1	3.49	8.28	< 0.05	3.98	< 0.05	2.57	–	24.9	–	–	–	–	–
O=C1NC(=O)/C(=C\c2ccc(F)c(-c3cncc(N4CCCNCC4)n3)c2)S1	1.02	2.35	< 0.05	1.24	< 0.05	2.91	< 0.05	4.36	–	–	–	–	–
CN1CCCN(c2cncc(-c3cncc(/C=C4\SC(=O)NC4=O)c3)n2)CC1	9.35	> 30	0.0106	28.3	< 0.05	> 10	< 0.05	> 30	–	–	–	–	–
CCOC(=O)N1CCCN(c2cncc(-c3cc(/C=C4/SC(=O)NC4=O)ccc3F)n2)CC1	3.88	4.18	< 0.05	10.9	< 0.05	3.58	–	22.7	–	–	–	–	–
CN1CCCN(c2cncc(-c3cc(/C=C4\SC(=S)NC4=O)ccc3F)n2)CC1	0.163	0.315	< 0.05	0.521	0.05	0.186	< 0.05	2.38	–	–	–	–	–
Cc1ccc(-c2cncc(N3CCCN(C)CC3)n2)cc1/C=C1\SC(=S)NC1=O	2.2	25.7	< 0.05	22.2	< 0.05	9.7	< 0.05	16.3	–	–	–	–	–
O=C1NC(=O)/C(=C\c2ccc(F)c(-c3cncc(N4CCCN(C(=O)Oc5ccccc5)CC4)n3)c2)S1	6.3	6.69	< 0.05	3.81	< 0.05	9.37	–	24	–	–	–	–	–
O=C1NC(=O)/C(=C/c2cc(-c3cncc(N4CCCNCC4)n3)cs2)S1	–	–	–	–	–	–	–	–	25.2	0.00439	27.7	99.9	> 30
C[C@H](Nc1cncc(-c2cccc(/C=C3\SC(=O)NC3=O)c2)n1)C1CC1	–	–	–	–	–	–	–	–	0.703	0.00144	7.21	99.9	17.2
C[C@H](Nc1cncc(-c2csc(/C=C3\SC(=O)NC3=O)c2)n1)C1CC1	–	–	–	–	–	–	–	–	8.72	0.024	19.2	99.4	16.7
O=C1NC(=O)/C(=C\c2ccc(F)c(-c3cncc(N4CCCN(C(=O)c5ccccc5F)CC4)n3)c2)S1	3.11	2.61	< 0.05	2.69	< 0.05	1.6	–	20	–	–	–	–	–
COC(=O)N1CCCN(c2cncc(-c3cc(/C=C4/SC(=O)NC4=O)ccc3F)n2)CC1	2.52	2.05	< 0.05	3.59	< 0.05	3.65	–	18.9	–	–	–	–	–
CC(C)(C)CC(=O)N1CCCN(c2cncc(-c3cc(/C=C4/SC(=O)NC4=O)ccc3F)n2)CC1	3.23	1.46	< 0.05	2.76	< 0.05	1.21	–	10.2	–	–	–	–	–
CC(C)(C)C(=O)N1CCCN(c2cncc(-c3cc(/C=C4/SC(=O)NC4=O)ccc3F)n2)CC1	0.374	1.02	< 0.05	0.318	< 0.05	0.316	–	12.7	–	–	–	–	–
O=C1NC(=O)/C(=C\c2ccc(F)c(-c3cncc(N4CCCN(C(=O)Nc5ccccc5)CC4)n3)c2)S1	> 10	6.15	< 0.05	10	< 0.05	4.3	–	18.8	–	–	–	–	–
O=C1NC(=O)/C(=C\c2ccc(F)c(-c3cncc(N4CCCN(C(=O)C5CC5)CC4)n3)c2)S1	2.78	3.94	< 0.05	4.09	< 0.05	0.321	–	23.1	–	–	–	–	–

Source: patent US20100331315A1, “RHODANINES AND RELATED HETEROCYCLES AS KINASE INHIBITORS” (priority 2009, published 2010)
